Molecules are shown by their SMILES.

Our source for the IC50 and inhibition values is US11926596B2, “Inhibitors of Rho associated coiled-coil containing protein kinase” (KADMON CORPORATION, LLC, priority 2017, dated 2024).

The subject of test [1] is phospho-myosin light chains (ppMlc, Thr18/Ser19) in A7R5 cells. Description: A7R5 in-cell ELISA, phospho-myosin light chain. Conditions: Rattus norvegicus, A7R5 cells; for IC50: 1.5 h, 90 min, read-out: pMLC IC50 A7R5; for inhibition at 10 µM: read-out: pMLC % inh A7R5. It counts as cell-based, rat. The protocol: Determination of compounds ROCK inhibitory activity in A7R5 cells: rat aortic smooth muscle cell line A7R5 cells were maintained and treated in DMEM medium with 10% of fetal bovine serum. Cells were seeded with density of 5,000 cells/well in 96-well plates for 24 hours and subsequently treated 90 min with testing compounds. Cells were then fixed and processed according to the In-Cell ELISA Colorimetric Detection Kit manual (Thermo Scientific). Cellular phospho-myosin light chains (ppMlc, Thr18/Ser19) levels were determined after treatments of DMSO control or test compounds using the In-Cell ELISA kit. The percent inhibition rate was calculated by applying the data obtained with 1 μM (or 10 μM) compound treatment to the formula, [1-(compound/DMSO)]×100%. ppMlc data obtained with 9 points 2-fold serial dilution of compounds were applied to the nonlinear regression curve fit function of the GraphPad Prism software to calculate the In cell IC50s.
A7R5 cells were treated with 9 points 2 fold serial dilution of compounds and ppMlc (T18/S19) levels were determined in order to calculate cellular IC50s of the compounds.
Two steps of measurements were adopted for pMLC/A7R5 IC50. Percent inhibition rates were calculated with a single dose (1 μM or 10 μM) compounds treatment to screen for active compounds and then cellular IC50s were measured only in compounds that have over 50% of inhibition rates.

The target in test [2] is T1, recombinant ROCK1 (amino acids 1-535) (Homo sapiens, UniProt Q13464).
T1 construct: recombinant ROCK1 (amino acids 1-535) and ROCK2; purchased ThermoFisher Scientific
Nature of the test: Z'-lyte kinase assay, ROCK1. It counts as biochemical. The conditions noted are these: for inhibition at 3 µM: read-out: ROCK1 % inh. The protocol:
(§1) Determination of compounds ROCK inhibitory activity in vitro (Z'lyte assay): recombinant ROCK1 (amino acids 1-535) and ROCK2 (amino acids 1-552) proteins were purchased from ThermoFisher Scientific. Compounds activities were measured by Z′-lyte kinase kit (ThermoFisher Scientific) and IC50s were calculated.
(§2) Table 2, below, provides in vitro and cellular inhibition of ROCKs by compounds of the invention. Compounds activities were measured by Z′-lyte kinase kit (ThermoFisher Scientific). […] IC50s were calculated using the GraphPad Prism software with kinase activities data that were collected from points 9 serial dilution of compounds treatment. The ROCK inhibition in A7R5 cells and NIH3T3 (Acta2-Luc) cells was performed as described above.

The target of test [3] is T2, recombinant ROCK2 (amino acids 1-552) (Homo sapiens, UniProt O75116).
T2 construct: ROCK2 (amino acids 1-552) proteins were purchased from ThermoFisher Scientific; purchased ThermoFisher Scientific
Description: Z'-lyte kinase assay, ROCK2. The class given is biochemical. The protocol:
as §1, §2

For test [4], the system named is luciferase reporter driven by the human ACTA2 gene promoter in NIH3T3 cells. Nature of the test: NIH3T3 cells Acta2-promoter driven-luciferase assay. It counts as cell-based. Conditions: plus TGF 1, 24 hr, read-out: NIH3T3, Acta2-luc, IC50. The protocol:
NIH3T3 cells Acta2-promoter driven-luciferase assay: A NIH3T3 cell line stably expressing a luciferase reporter driven by the human ACTA2 gene promoter (−1000-1 bp) was established (NIH3T3-Acta2-luciferase). The cells were plated to confluence and treated with the test compounds plus TGF 1 for 24 hr. Cells were then lysed and luciferase activity was measured using the LightSwitch luciferase kit from Active Motif.

T2 sequence (O75116 1-552): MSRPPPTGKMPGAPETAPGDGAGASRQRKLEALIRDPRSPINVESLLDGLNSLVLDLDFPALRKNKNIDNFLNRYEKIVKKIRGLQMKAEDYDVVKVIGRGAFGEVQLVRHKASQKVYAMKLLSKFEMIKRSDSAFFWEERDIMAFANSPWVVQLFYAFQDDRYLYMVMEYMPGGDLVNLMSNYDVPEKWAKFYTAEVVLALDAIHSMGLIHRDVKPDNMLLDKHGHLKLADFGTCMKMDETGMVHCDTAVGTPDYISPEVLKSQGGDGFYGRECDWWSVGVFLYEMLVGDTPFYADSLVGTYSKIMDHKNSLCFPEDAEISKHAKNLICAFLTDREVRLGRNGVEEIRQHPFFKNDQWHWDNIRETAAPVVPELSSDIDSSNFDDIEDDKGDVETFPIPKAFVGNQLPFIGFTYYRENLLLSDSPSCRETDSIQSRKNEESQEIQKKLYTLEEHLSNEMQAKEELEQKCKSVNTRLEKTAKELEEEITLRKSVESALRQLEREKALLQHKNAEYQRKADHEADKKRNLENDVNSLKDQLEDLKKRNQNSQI
T1 sequence (Q13464 1-535): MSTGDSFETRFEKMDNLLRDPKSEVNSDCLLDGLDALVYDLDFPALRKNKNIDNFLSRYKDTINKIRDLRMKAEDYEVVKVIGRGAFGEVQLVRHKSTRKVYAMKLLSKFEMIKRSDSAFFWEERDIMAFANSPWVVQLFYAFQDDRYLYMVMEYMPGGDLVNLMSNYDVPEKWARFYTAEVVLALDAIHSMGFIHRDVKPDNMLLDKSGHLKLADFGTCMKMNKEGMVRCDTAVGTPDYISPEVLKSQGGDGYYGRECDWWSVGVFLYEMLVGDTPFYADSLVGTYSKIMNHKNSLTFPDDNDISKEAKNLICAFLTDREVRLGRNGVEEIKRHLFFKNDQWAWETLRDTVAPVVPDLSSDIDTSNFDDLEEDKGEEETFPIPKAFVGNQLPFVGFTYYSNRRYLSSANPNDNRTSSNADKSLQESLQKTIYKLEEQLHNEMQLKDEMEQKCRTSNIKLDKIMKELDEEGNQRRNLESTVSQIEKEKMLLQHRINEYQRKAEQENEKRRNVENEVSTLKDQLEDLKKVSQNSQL

One may read the IC50 as the concentration at which inhibition is half-maximal. Consider `CNC(C(=O)Nc1ccc2[nH]ncc2c1)c1ccc(F)cc1` (stereo not shown) [Example 19, 2-(4-fluorophenyl)-N-(1H-indazol-5-yl)-2-(methylamino)acetamide], for which the IC50 in test [1] was found to be 1.6 µM; in test [2] it was 0.173 µM; in test [3], 0.16 µM. Also, the results for the inhibition at 3 µM in test [2] and in test [3] (read-out: ROCK2 % inh) were 21.4% and 96.6%, respectively.
As to `CC(C)NC(C(=O)Nc1ccc2[nH]ncc2c1)c1ccc(F)cc1` (stereo not shown) [Example 20, 2-(4-fluorophenyl)-N-(1H-indazol-5-yl)-2-(isopropylamino)acetamide], the figures for the 50% inhibitory concentration (IC50) in test [1], in test [2] and in test [3] were 2.51 µM, 0.561 µM and 0.152 µM, respectively. The results for the inhibition at 3 µM in test [2] and in test [3] (read-out: ROCK2 % inh) were 18.4% and 94.6%, respectively.
Take `CCNC(C(=O)Nc1ccc2[nH]ncc2c1)c1ccccc1` (stereo not shown) [Example 21, 2-(ethylamino)-N-(1H-indazol-5-yl)-2-phenylacetamide]: the half-maximal inhibitory concentration (IC50) in test [1] was found to be 2.39 µM. For the same compound, the figures for the inhibition at 3 µM in test [2] and in test [3] (read-out: ROCK2 % inh) were 91.5% and 95.8%, respectively.
Regarding `CC(C)NC(C(=O)Nc1ccc2[nH]ncc2c1)c1ccccc1` (stereo not shown) [Example 22, N-(1H-indazol-5-yl)-2-(isopropylamino)-2-phenylacetamide], the concentration for half-maximal inhibition (IC50) in test [1] amounted to 1.8 µM. In addition, the inhibition at 3 µM in test [2] is 94.3%; in test [3] (read-out: ROCK2 % inh), 96.7%.
On to `CCNC(C(=O)Nc1ccc2[nH]ncc2c1)c1ccc(F)cc1` (stereo not shown) [Example 23, 2-(ethylamino)-2-(4-fluorophenyl)-N-(1H-indazol-5-yl)acetamide], for which the values for the 50% inhibitory concentration (IC50) in test [1], in test [2] and in test [3] were 1.06 µM, 0.495 µM and 0.043 µM, respectively. In addition, the values for the inhibition at 3 µM in test [2] and in test [3] (read-out: ROCK2 % inh) were 94.3% and 95.3%, respectively.
With `COc1ccc(C(NC(C)C)C(=O)Nc2ccc3[nH]ncc3c2)cc1` (stereo not shown) [Example 25, N-(1H-indazol-5-yl)-2-(isopropylamino)-2-(4-methoxyphenyl)acetamide], the 50% inhibitory concentration (IC50) in test [1] is 0.633 µM; in test [2], 0.0106 µM; in test [3] it was 0.0097 µM. Besides, the inhibition at 3 µM came out at 99% in test [2] and 98.8% in test [3] (read-out: ROCK2 % inh).
Turning to `COc1ccc(C(NC2CC2)C(=O)Nc2ccc3[nH]ncc3c2)cc1` (stereo not shown) [Example 27, 2-(cyclopropylamino)-N-(1H-indazol-5-yl)-2-(4-methoxyphenyl)acetamide], the concentration for half-maximal inhibition (IC50) in test [1] was 2.98 µM; in test [2], 0.079 µM; in test [3], 0.066 µM.
Regarding `CNC(C(=O)Nc1ccc2[nH]ncc2c1)c1ccc(C)cc1` (stereo not shown) [Example 28, N-(1H-indazol-5-yl)-2-(methylamino)-2-(p-tolyl)acetamide], the IC50 came out at 0.834 µM in test [1], 0.0178 µM in test [2] and 0.0212 µM in test [3]. The inhibition at 3 µM in test [2] was 99%; in test [3] (read-out: ROCK2 % inh) it was 98.8%.
Consider `Cc1ccc(C(NC(C)C)C(=O)Nc2ccc3[nH]ncc3c2)cc1` (stereo not shown) [Example 29, N-(1H-indazol-5-yl)-2-(isopropylamino)-2-(p-tolyl)acetamide], for which the 50% inhibitory concentration (IC50) stood at 0.934 µM in test [1], 0.0657 µM in test [2] and 0.0063 µM in test [3]. Further, the inhibition at 3 µM in test [2] came out at 99%; in test [3] (read-out: ROCK2 % inh), 98.8%.
Take `Cc1ccc(C(NC2CC2)C(=O)Nc2ccc3[nH]ncc3c2)cc1` (stereo not shown) [Example 31, 2-(cyclopropylamino)-N-(1H-indazol-5-yl)-2-(p-tolyl)acetamide]: in test [1], the inhibition at 10 µM stood at 35%. In addition, the 50% inhibitory concentration (IC50) was 0.228 µM in test [2] and more than 1 µM in test [3].
For `CNC(C(=O)Nc1ccc2[nH]ncc2c1)c1ccc(-c2ccccc2OC)cc1` (stereo not shown) [Example 32, N-(1H-indazol-5-yl)-2-(2′-methoxy-[1,1′-biphenyl]-4-yl)-2-(methylamino)acetamide], the inhibition at 10 µM in test [1] was 5%. The values for the IC50 in test [2] and in test [3] were 0.31 µM and more than 1 µM, respectively.
Consider `COc1ccc(C(NC(C)(C)C)C(=O)Nc2ccc3[nH]ncc3c2)cc1` (stereo not shown) [Example 36, 2-(tert-butylamino)-N-(1H-indazol-5-yl)-2-(4-methoxyphenyl)acetamide], for which the concentration for half-maximal inhibition (IC50) in test [1] came out at 0.766 µM; in test [2], 0.0247 µM; in test [3], 0.0099 µM. The figures for the inhibition at 3 µM in test [2] and in test [3] (read-out: ROCK2 % inh) were 99% and 98.8%, respectively.
`CC(C)(C)NC(C(=O)Nc1ccc2[nH]ncc2c1)c1ccccc1` (stereo not shown) [Example 37, 2-(tert-butylamino)-N-(1H-indazol-5-yl)-2-phenylacetamide]: the IC50 in test [1] was 2.6 µM; in test [2], 0.0981 µM; in test [3], 0.0743 µM. Also, the inhibition at 3 µM in test [2] worked out at 99%; in test [3] (read-out: ROCK2 % inh), 98.8%.
With `Cc1ccc(C(NC(C)(C)C)C(=O)Nc2ccc3[nH]ncc3c2)cc1` (stereo not shown) [Example 38, 2-(tert-butylamino)-N-(1H-indazol-5-yl)-2-(p-tolyl)acetamide], the concentration for half-maximal inhibition (IC50) was 1.34 µM in test [1], 0.0614 µM in test [2] and 0.0274 µM in test [3]. Also, the inhibition at 3 µM in test [2] and in test [3] (read-out: ROCK2 % inh) was 100% in each case.
On to `CNC(C(=O)Nc1ccc2[nH]ncc2c1)c1cccnc1` (stereo not shown) [Example 39, N-(1H-indazol-5-yl)-2-(methylamino)-2-(pyridin-3-yl)acetamide], for which the IC50 in test [1] amounted to 4.21 µM; in test [2] it was 0.25 µM; in test [3], 0.213 µM.
As to `CNC(C(=O)Nc1ccc2[nH]ncc2c1)c1ccccn1` (stereo not shown) [Example 40, N-(1H-indazol-5-yl)-2-(methylamino)-2-(pyridin-2-yl)acetamide], the inhibition at 10 µM in test [1] stood at 37%. Further, the IC50 in test [2] was determined as 0.143 µM; in test [3] it was 0.453 µM.
`CCNC(C(=O)Nc1ccc2[nH]ncc2c1)c1cccc(F)c1` (stereo not shown) [Example 51, 2-(ethylamino)-2-(3-fluorophenyl)-N-(1H-indazol-5-yl)acetamide]: the half-inhibitory concentration (IC50) in test [1] was determined as 1.66 µM; in test [4], 5.45 µM; in test [3], 0.053 µM.
Consider `CNC(C(=O)Nc1ccc2[nH]ncc2c1)c1cccc(C)c1` (stereo not shown) [Example 52, N-(1H-indazol-5-yl)-2-(methylamino)-2-(m-tolyl)acetamide], for which the IC50 was 0.532 µM in test [1], 1.51 µM in test [4] and 0.034 µM in test [3].
Consider `CNC(C(=O)Nc1ccc2[nH]ncc2c1)c1cccc(F)c1` (stereo not shown) [Example 53, 2-(3-fluorophenyl)-N-(1H-indazol-5-yl)-2-(methylamino)acetamide], for which the IC50 in test [1] was found to be 0.914 µM; in test [4], 1.16 µM; in test [3] it was 0.041 µM.
`CN[C@@H](C(=O)Nc1ccc2[nH]ncc2c1)c1cccc(OC)c1` [Example 54, (R)-N-(1H-indazol-5-yl)-2-(3-methoxyphenyl)-2-(methylamino)acetamide]: the values for the IC50 in test [1], in test [4] and in test [3] were 0.2 µM, 0.268 µM and 0.014 µM, respectively.
Consider `CN[C@H](C(=O)Nc1ccc2[nH]ncc2c1)c1cccc(OC)c1` [Example 55, (S)-N-(1H-indazol-5-yl)-2-(3-methoxyphenyl)-2-(methylamino)acetamide], for which the half-maximal inhibitory concentration (IC50) in test [1] worked out at 0.589 µM; in test [4], 0.773 µM; in test [3], 0.03 µM.
In the case of `CNC(C(=O)Nc1ccc2[nH]ncc2c1)c1ccc(OC(F)(F)F)cc1` (stereo not shown) [Example 56, N-(1H-indazol-5-yl)-2-(methylamino)-2-(4-(trifluoromethoxy)phenyl)acetamide], the IC50 in test [1] worked out at 0.546 µM; in test [4], 0.666 µM; in test [3], 0.046 µM.
`CNC(C(=O)Nc1ccc2[nH]ncc2c1)c1ccc(OC)c(F)c1` (stereo not shown) [Example 57, 2-(3-fluoro-4-methoxyphenyl)-N-(1H-indazol-5-yl)-2-(methylamino)acetamide]: the IC50 in test [1] came to 0.339 µM; in test [4], 0.473 µM; in test [3] it was 0.025 µM. Further, the inhibition at 0.5 µM in test [3] (@ 0.5 μM, read-out: ROCK2 % inh) was found to be 95%.
